According to patent US20260152503A1, “SPIROBICYCLIC COMPOUNDS” (ACERAND THERAPEUTICS (HONG KONG) LIMITED, priority 2022, published 2026):

Columns and labels:
FGFR1 = target: T1, FGFR1 (Homo sapiens, UniProt P11362); assay: pERK potency assay (In Cell ELISA), DMS114 cells; assay type: cell-based; conditions: DMS114 (FGFR1 amplification) cells, 3 hours
T1 construct: DMS114 (FGFR1 amplification); host or cells: DMS114
Outline: (§1)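 Cells with FGFR aberrations (DMS114 FGFR1 amplification, RT112 FGFR3-TACC3 fusion, AN3CA FGFR2 K310R/N549K) exposed 3 h at 37 °C to compound, final 0.000038–10 μM (4-fold dilutions). pERK (Thr202/Tyr204) quantified by In-Cell ELISA chemiluminescence; IC50 from 4-parameter sigmoidal fit.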

SNU-16 = assay: 2D cell proliferation assay, SNU-16; assay type: cell-based; conditions: Homo sapiens, 96 hours, CTG, read-out: Cell Line, IC50 SNU-16
Description: (§2) Low IC50 values are indicative of the high potency of the FGFR inhibitor compounds in this assay selling. […] Cell proliferation assays are performed in two-dimensional (2D)) anchorage-dependent conditions in 96 well plates (Corning® Black/Clear flat Bottom, Cat #3603) with the following cell lines: • Ba/F3 FGFR2-BICC1 (human […]): Mouse Ba/F3 cell line stably expressed exogenous human FGFR2-BICC1 fusion gene bearing V546F mutation in FGFR2 Ba/F3; • FGFR2-BICC1 (human FGFR2/[…]): Mouse Ba/F3 cell line stably expressed exogenous human FGFR2-BICC1 fusion gene bearing N549K mutation in FGFR2; • Snu-16: human gastric cancer cell with FGFR2 amplification; • KATO III: human gastric cancer cell with FGFR2 amplification; • AN3CA: Human endometrial cancer with FGFR2 mutation (k310R, N549K); • MFM-223: Human breast cancer with FGFR1/2 amplification; • MFE-296: Human endometrial cancer with FGFR2 mutation (N549K); • MFE-280: Human endometrial cancer with FGFR2 mutation ([…]); • NCI-H1581: human non-small cell lung cancer with FGFR1 amplification; • KG-1a: Acute myelogenous leukemia with FGFR1OP2-FGFR1 translocation; • DMS114: human small cell carcinoma of the lung with FGFR1 amplification; • RT112: human bladder cancer with FGFR3 overexpression/FGFR3-TACC3 fusion; • SW780: human bladder cancer with FGFR3 overexpression/FGFR3-BALAP2L1 fusion; • Hep3B: Liver cancer with FGF19 amplification (FGFR4 ligand); • AGS: Human gastric adenocarcinoma with Kras G12D mutation and FGFR wild type; • PC-9: human non-small cell lung cancer (NSCLC) with wild-type FGFR and an EGFR del19 mutation; or • H1975: human non-small cell lung cancer (NSCLC) with wild-type FGFR and EGFR L858R/T790M mutation.
(§3) Cell lines are purchased from the American Type Culture Collection (ATCC) or Sigma. All cell lines are maintained in RPMI-1640 or DMEM supplemented with 10% heat-inactivated fetal bovine serum.
(§4) Cells growing in the log phase are detached with Gibco™ TrypLE™ Express Enzyme and plated in 96 well plate at 3000 to 5000 cells/well in 100 μl of media. After overnight incubation at 37° C., 5% CO2 incubator, cells are treated with compounds (50 uL/well) at the final concentrations spanning from 0.000038 uM to 10 μM (4-fold serial dilution for total of 10 points). Cells are incubated at 37° C., 5% CO2, and 95% humidity incubator for 96 hours. At the end of incubation 2D CTG reagent from Promega was added to each well according to vendors recommendation and mixed for 10 min in dark. The luminescence signals are determined with a Biotek™ plate reader. Data is fitted using a sigmoidal curve analysis program (GraphPad Prism®) with variable hill slope and IC50 is determined.

AN3CA = assay: 2D cell proliferation assay, AN3CA; assay type: cell-based; conditions: Homo sapiens, AN3-CA, 96 hours, CTG, read-out: Cell Line, IC50 AN3CA
Description: as §2, §3, §4

Ba/F3 FGFR2-V564F = target: T2, Ba/F3 FGFR2-V564F (Homo sapiens, UniProt P21802, V564F, cells depend on it); assay: 2D cell proliferation assay, Ba/F3 FGFR2-V564F; assay type: cell-based, mouse; conditions: 96 hours, CTG, read-out: Cell Line, IC50 Ba/F3 FGFR2-V564F
T2 construct: fused on or other part: Q9H694 (Protein bicaudal C homolog 1)
Outline: (§5)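 Cells seeded at 3000–5000 cells/well in RPMI-1640 or DMEM with 10% FBS, treated next day with compounds at 0.000038–10 μM final (4-fold, 10 points) for 96 h at 37°C, 5% CO2. Viability by CellTiter-Glo luminescence; IC50 from sigmoidal variable-slope fit.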

FGFR2 = target: T3, FGFR2 (Homo sapiens, UniProt P21802, K310R/N549K); assay: pERK potency assay (In Cell ELISA), AN3CA cells; assay type: cell-based; conditions: for IC50: pERK, AN3CA (FGFR2/k310R, N549K) cells, 3 hours; for FGFR1 IC50/FGFR2 IC50 / FGFR3 IC50/FGFR2 IC50: selectivity ratio, pERK potency; for FGFR1 IC50/FGFR2 IC50: FGFR2 relative to FGFR1; for FGFR3 IC50/FGFR2 IC50: FGFR2 relative to FGFR3
T3 construct: in FGFR aberrations of AN3CA (FGFR2/k310R, N549K); host or cells: AN3CA
Outline: as §1

FGFR3 = target: T4, FGFR3 (Homo sapiens, UniProt P22607); assay: pERK potency assay (In Cell ELISA), RT112 cells; assay type: cell-based; conditions: RT112 (FGFR3 overexpression/FGFR3-TACC3 fusion) cells, 3 hours
T4 construct: RT112 (FGFR3 overexpression/FGFR3-TACC3 fusion); host or cells: RT112; the other entry of the earlier key: TACC3 (Q9Y6A5, Transforming acidic coiled-coil-containing protein 3)
Outline: as §1

KATO III = assay: 2D cell proliferation assay, KATO III; assay type: cell-based; conditions: Homo sapiens, 96 hours, CTG, read-out: Cell Line, IC50 KATO III
Description: as §2, §3, §4

Ba/F3 FGFR2-N549K = target: T5, Ba/F3 FGFR2-N549K (Homo sapiens, UniProt P21802, N549K, cells depend on it); assay: 2D cell proliferation assay, Ba/F3 FGFR2-N549K; assay type: cell-based, mouse; conditions: 96 hours, CTG, read-out: Cell Line, IC50 Ba/F3 FGFR2-N549K
T5 construct: fused on or other part: Q9H694 (Protein bicaudal C homolog 1)
Outline: as §5

T3 sequence (P21802 22-821 K310R/N549K): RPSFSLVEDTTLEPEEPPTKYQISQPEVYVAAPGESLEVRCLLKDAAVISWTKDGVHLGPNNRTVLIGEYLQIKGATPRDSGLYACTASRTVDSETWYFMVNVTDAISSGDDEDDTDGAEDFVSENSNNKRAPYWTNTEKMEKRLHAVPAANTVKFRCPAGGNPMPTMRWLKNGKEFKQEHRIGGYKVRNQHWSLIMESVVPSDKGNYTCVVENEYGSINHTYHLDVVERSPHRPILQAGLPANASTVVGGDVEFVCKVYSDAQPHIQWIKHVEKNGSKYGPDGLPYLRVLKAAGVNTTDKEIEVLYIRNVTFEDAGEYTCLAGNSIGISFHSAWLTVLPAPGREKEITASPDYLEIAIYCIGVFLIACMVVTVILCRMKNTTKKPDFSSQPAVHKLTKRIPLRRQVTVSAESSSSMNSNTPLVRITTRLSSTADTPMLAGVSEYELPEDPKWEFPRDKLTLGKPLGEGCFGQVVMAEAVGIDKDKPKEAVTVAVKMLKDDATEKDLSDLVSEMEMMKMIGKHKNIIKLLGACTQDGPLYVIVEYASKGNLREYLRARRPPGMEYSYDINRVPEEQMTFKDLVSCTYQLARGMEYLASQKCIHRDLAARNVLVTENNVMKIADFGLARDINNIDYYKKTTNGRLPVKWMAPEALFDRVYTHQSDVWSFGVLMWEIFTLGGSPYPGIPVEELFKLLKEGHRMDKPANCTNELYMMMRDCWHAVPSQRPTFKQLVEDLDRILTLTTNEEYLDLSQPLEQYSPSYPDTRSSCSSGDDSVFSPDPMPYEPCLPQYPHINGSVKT
T1 sequence (P11362 22-822): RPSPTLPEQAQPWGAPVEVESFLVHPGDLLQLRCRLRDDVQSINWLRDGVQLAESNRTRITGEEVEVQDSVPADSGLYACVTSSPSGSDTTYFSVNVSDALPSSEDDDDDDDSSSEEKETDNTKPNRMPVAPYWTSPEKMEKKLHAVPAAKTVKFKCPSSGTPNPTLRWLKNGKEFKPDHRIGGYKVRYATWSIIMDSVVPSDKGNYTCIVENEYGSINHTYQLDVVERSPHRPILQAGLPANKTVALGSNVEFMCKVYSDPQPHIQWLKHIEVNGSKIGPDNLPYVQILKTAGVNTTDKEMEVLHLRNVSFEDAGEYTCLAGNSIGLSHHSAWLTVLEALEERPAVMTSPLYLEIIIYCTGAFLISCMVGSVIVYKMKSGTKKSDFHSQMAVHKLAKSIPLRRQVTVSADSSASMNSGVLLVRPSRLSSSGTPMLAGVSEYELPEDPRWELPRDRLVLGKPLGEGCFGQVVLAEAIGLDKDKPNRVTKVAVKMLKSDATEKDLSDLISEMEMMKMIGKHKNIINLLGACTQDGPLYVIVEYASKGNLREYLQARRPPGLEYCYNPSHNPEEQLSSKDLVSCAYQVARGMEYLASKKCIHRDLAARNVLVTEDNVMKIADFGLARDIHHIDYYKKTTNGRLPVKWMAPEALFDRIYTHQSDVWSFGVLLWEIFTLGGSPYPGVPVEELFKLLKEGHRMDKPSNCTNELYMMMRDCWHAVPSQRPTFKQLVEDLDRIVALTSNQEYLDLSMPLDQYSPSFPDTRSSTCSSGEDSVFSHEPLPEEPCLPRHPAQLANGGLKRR
T2 sequence (P21802 whole entry V564F, the tested form may be a part): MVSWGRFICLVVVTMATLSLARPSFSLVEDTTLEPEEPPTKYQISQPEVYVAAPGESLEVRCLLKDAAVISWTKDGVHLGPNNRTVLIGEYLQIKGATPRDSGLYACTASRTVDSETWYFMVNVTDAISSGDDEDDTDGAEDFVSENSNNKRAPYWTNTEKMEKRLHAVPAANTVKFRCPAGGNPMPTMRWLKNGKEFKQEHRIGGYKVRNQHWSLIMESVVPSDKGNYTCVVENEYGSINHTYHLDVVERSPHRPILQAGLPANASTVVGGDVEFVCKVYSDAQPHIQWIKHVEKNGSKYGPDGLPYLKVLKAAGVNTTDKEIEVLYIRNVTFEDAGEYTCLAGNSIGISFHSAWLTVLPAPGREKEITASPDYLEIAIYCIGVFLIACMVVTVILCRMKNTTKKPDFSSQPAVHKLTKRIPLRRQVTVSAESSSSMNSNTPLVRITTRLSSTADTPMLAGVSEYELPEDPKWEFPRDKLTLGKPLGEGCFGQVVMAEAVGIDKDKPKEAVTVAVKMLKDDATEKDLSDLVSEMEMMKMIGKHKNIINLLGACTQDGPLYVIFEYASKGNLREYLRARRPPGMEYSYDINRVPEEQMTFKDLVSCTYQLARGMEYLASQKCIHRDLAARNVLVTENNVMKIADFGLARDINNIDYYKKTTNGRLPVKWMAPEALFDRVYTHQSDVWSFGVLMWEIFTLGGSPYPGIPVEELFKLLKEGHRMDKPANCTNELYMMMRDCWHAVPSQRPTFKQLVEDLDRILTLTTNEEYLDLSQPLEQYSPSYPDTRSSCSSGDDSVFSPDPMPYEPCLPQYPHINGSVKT
T5 sequence (P21802 whole entry N549K, the tested form may be a part): as the sequence (P21802 whole entry V564F, the tested form may be a part) above, with N549K, F564V counted along it

| Structure (SMILES) | IC50 (FGFR1) | IC50 (SNU-16) | IC50 (AN3CA) | GI50 (Ba/F3 FGFR2-V564F) | IC50 (FGFR2) | FGFR1 IC50/FGFR2 IC50 (FGFR2) | FGFR3 IC50/FGFR2 IC50 (FGFR2) | IC50 (FGFR3) | IC50 (KATO III) | GI50 (Ba/F3 FGFR2-N549K) |
| --- | --- | --- | --- | --- | --- | --- | --- | --- | --- | --- |
| C=CC(=O)N1CCC2(CC=C(c3c(-c4ccc(OC5CC5)cc4)c4c(N)ncnc4n3C)CC2)CC1 [Example 18, 1-(9-(4-amino-5-(4-cyclopropoxyphenyl)-7-methyl-7H-pyrrolo[2,3-d]pyrimidin-6-yl)-3-azaspiro[5.5]undec-8-en-3-yl)prop-2-en-1-one] | > 100 nM | 1 to 10 nM | 10 to 30 nM | 1 to 10 nM | ≤ 1 nM | G (a selectivity ratio greater than 150 but less than or equal to 500) | G (a selectivity ratio greater than 150 but less than or equal to 500) | > 100 nM | 1 to 10 nM | 1 to 10 nM |
| C=CC(=O)N1CCC2(CC=C(c3c(-c4ncc(C(F)F)cn4)c4c(N)ncnc4n3C)CC2)CC1 [Example 56, 1-(9-(4-amino-5-(5-(difluoromethyl)pyrimidin-2-yl)-7-methyl-7H-pyrrolo[2,3-d]pyrimidin-6-yl)-3-azaspiro[5.5]undec-8-en-3-yl)prop-2-en-1-one] | > 100 nM | 1 to 10 nM | ≤ 1 nM | ≤ 1 nM | ≤ 1 nM | G (a selectivity ratio greater than 150 but less than or equal to 500) | I (a selectivity ratio greater than 1000 but less than or equal to 2000) | > 100 nM | 1 to 10 nM | 1 to 10 nM |
| C=CC(=O)N1CCC2(CC=C(c3c(-c4ccc(OC5CCCC5)nc4)c4c(N)ncnc4n3C)CC2)CC1 [Example 24, 1-(9-(4-amino-5-(6-(cyclopentyloxy)pyridin-3-yl)-7-methyl-7H-pyrrolo[2,3-d]pyrimidin-6-yl)-3-azaspiro[5.5]undec-8-en-3-yl)prop-2-en-1-one] | > 100 nM | 10 to 30 nM | 10 to 30 nM | 30 to 100 nM | 1 to 10 nM | F (a selectivity ratio greater than 50 but less than or equal to 150) | F (a selectivity ratio greater than 50 but less than or equal to 150) | > 100 nM | 10 to 30 nM | 1 to 10 nM |
| C=CC(=O)N1CCC2(CC=C(c3c(-c4cnccn4)c4c(N)ncnc4n3C)CC2)CC1 [Example 59, 1-(9-(4-amino-7-methyl-5-(pyrazin-2-yl)-7H-pyrrolo[2,3-d]pyrimidin-6-yl)-3-azaspiro[5.5]undec-8-en-3-yl)prop-2-en-1-one] | > 100 nM | 30 to 100 nM | 30 to 100 nM | ≤ 1 nM | 1 to 10 nM | F (a selectivity ratio greater than 50 but less than or equal to 150) | H (a selectivity ratio greater than 500 but less than or equal to 1000) | > 100 nM | 30 to 100 nM | 1 to 10 nM |
